# Assay results as given in ChEMBL document CHEMBL4138081, “Recent developments of coumarin-containing derivatives and their anti-tubercular activity” (Eur J Med Chem, 2017).
# What was measured:
# [1] = Resistant index, ratio of MIC for INH resistant Mycobacterium tuberculosis to MIC for Mycobacterium tuberculosis H37Rv; format: functional
# [2] = test system: Mycobacterium tuberculosis; assay: Antimycobacterial activity against INH resistant Mycobacterium tuberculosis after 72 hrs by alamar blue dye-based broth dilution assay; format: functional
structure (smiles),measurement,setting,value
O=c1oc2ccccc2cc1C(c1cccs1)c1c(O)c2ccccc2oc1=O (centres undefined),Ratio,[1],1.6
same,MIC,[2],8.34 µM
Cc1cc2oc(=O)c(C(c3cccs3)c3c(O)c4cc(C)c(C)cc4oc3=O)c(C)c2cc1C (centres undefined),Ratio,[1],1.6
same,MIC,[2],8.34 µM
